Laboratory results published in patent publication US20250144067A1, “PERSONALIZED STARVATION THERAPY FOR CANCER” (Faeth Therapeutics, Inc., priority 2021, published 2025).
Where a name gives a salt, the structure may show the parent alone.

Assays:
[1] = system: NCI-H292 lung cancer cells; assay: FDA drug screening, complete media vs cholesterol-free media without statin (TABLE 1); format: cell-based, human
[2] = system: NCI-H292 lung cancer cells; assay: FDA drug screening, complete media vs cholesterol-free media with simvastatin (TABLE 2); format: cell-based, human; conditions: for Cholesterol-free media + simvastatin (0.04 μM) / Complete Media: NCI-H292 cells
[3] = NCI-H292 cells, cholesterol-free media without statin
[4] = complete vs cholesterol-free media, greater than 0 enhanced anti-cancer activity, about 0 neutral, below 0 antagonists
[5] = drug in cholesterol-free media with simvastatin 0.04 μM
[6] = complete media vs cholesterol-free media + simvastatin (0.04 μM), >0 enhanced anti-cancer activity, about 0 neutral, <0 antagonist
[7] = Complete minus Cholesterol-free, greater than 0 enhanced anti-cancer activity, about 0 neutral, below 0 antagonists
[8] = NCI-H292 cells in cholesterol-free media without statin
[9] = NCI-H292 cells in complete media
[10] = cholesterol-free media with simvastatin 0.04 μM, cell growth value in FDA drug screen
[11] = complete media, cell growth value in FDA drug screen
[12] = complete media minus cholesterol-free media + simvastatin, >0 enhanced anti-cancer activity, about 0 neutral, <0 antagonist
[13] = NCI-H292 cells, cholesterol-free media without statin, FDA drug library screen
[14] = NCI-H292 cells, complete media, FDA drug library screen
[15] = complete vs cholesterol-free media, >0 enhanced anti-cancer activity, about 0 neutral, <0 antagonist
[16] = FDA drug library screen, cholesterol-free media with simvastatin 0.04 μM
[17] = FDA drug library screen, complete media
[18] = Complete minus Cholesterol-free, greater than 0 enhanced anti-cancer activity, about 0 neutral, below 0 antagonist
[19] = NCI-H292 cells, FDA drug library screen, cholesterol-free media without statin
[20] = NCI-H292 cells, FDA drug library screen, complete media
[21] = cholesterol-free media with simvastatin 0.04 μM, FDA drug library screen (TABLE 2)
[22] = complete media, FDA drug library screen (TABLE 2)
[23] = complete media minus cholesterol-free media + simvastatin (0.04 μM), >0 enhanced anti-cancer activity, about 0 neutral, <0 antagonist
[24] = Complete minus Cholesterol-free, >0 enhanced anti-cancer activity, about 0 neutral, <0 antagonist
[25] = FDA library drug in cholesterol-free media with simvastatin 0.04 μM
[26] = FDA library drug in complete media
[27] = Complete minus Cholesterol-free, […]
[28] = complete media vs cholesterol-free media + simvastatin (0.04 μM), […]

SMILES: O=c1cc(-c2ccccc2)oc2cc(O)c(O)c(O)c12 [Baicalein]
- Cholesterol-free [1, 3]: 1.261
- Complete ([1]; NCI-H292 cells, complete media): 0.9313
- Difference [1, 4]: −0.33
- Cholesterol-free media + simvastatin (0.04 μM) [2, 5]: 1.347
- Complete Media ([2]; drug in complete media): 1.087
- Difference [2, 6]: −0.26

SMILES: N[C@H]1CONC1=O [L-Cycloserine]
- Difference [1, 7]: −0.78
- Cholesterol-free [1, 8]: 1.458
- Complete [1, 9]: 0.6746
- Cholesterol-free media + simvastatin (0.04 μM) [2, 10]: 0.815
- Complete Media [2, 11]: 0.9066
- Difference [2, 12]: 0.09

SMILES: CC(=O)SCC(Cc1ccccc1)C(=O)NCC(=O)OCc1ccccc1 (stereo not shown) [Racecadotril]
- Cholesterol-free [1, 3]: 1.294
- Complete ([1]; NCI-H292 cells, complete media): 0.8911
- Difference [1, 4]: −0.40
- Cholesterol-free media + simvastatin (0.04 μM) [2, 5]: 1.092
- Complete Media ([2]; drug in complete media): 0.8523
- Difference [2, 6]: −0.24

SMILES: CCN1CCCC1CNC(=O)c1cc(S(=O)(=O)CC)c(N)cc1OC (stereo not shown) [Amisulpride]
- Cholesterol-free [1, 13]: 1.175
- Complete [1, 14]: 1.349
- Difference [1, 15]: 0.17
- Cholesterol-free media + simvastatin (0.04 μM) [2, 10]: 0.8703
- Complete Media [2, 11]: 0.9333
- Difference [2, 12]: 0.06

SMILES: CN(C)C(=O)c1cc2cnc(Nc3ccc(N4CCNCC4)cn3)nc2n1C1CCCC1 [Ribociclib hydrochloride]
- Cholesterol-free [1, 13]: 1.177
- Complete [1, 14]: 1.5
- Difference [1, 15]: 0.32
- Cholesterol-free media + simvastatin (0.04 μM) [2, 16]: 0.9857
- Complete Media [2, 17]: 0.8306
- Difference [2, 6]: −0.16

SMILES: O=C(O)CCCCC1CCSS1 (stereo not drawn) [α-Lipoic Acid]
- Difference [1, 18]: −0.15
- Cholesterol-free [1, 19]: 1.192
- Complete [1, 20]: 1.044
- Cholesterol-free media + simvastatin (0.04 μM) [2, 16]: 1.116
- Complete Media [2, 17]: 1.004
- Difference [2, 6]: −0.11

SMILES: Cc1cccc(N2CC(CO)OC2=O)c1 (stereo not shown) [Toloxatone]
- Difference [1, 7]: −0.48
- Cholesterol-free [1, 8]: 1.574
- Complete [1, 9]: 1.099
- Cholesterol-free media + simvastatin (0.04 μM) [2, 21]: 1.023
- Complete Media [2, 22]: 1.032
- Difference [2, 23]: 0.01

SMILES: COc1ccc(CN2C3CC2CN(c2ccc(-c4cc(OCC(C)(C)O)cn5ncc(C#N)c45)cn2)C3)cn1 [Selpercatinib]
- Difference [1, 24]: −0.01
- Cholesterol-free [1, 13]: 0.9224
- Complete [1, 14]: 0.9158
- Cholesterol-free media + simvastatin (0.04 μM) [2, 16]: 1.485
- Complete Media [2, 17]: 1.627
- Difference [2, 12]: 0.14

SMILES: C[C@](N)(Cc1ccc(O)cc1)C(=O)O [Metyrosine]
- Difference [1, 18]: −0.10
- Cholesterol-free [1, 19]: 1.606
- Complete [1, 20]: 1.504
- Cholesterol-free media + simvastatin (0.04 μM) [2, 21]: 0.9769
- Complete Media [2, 22]: 0.9769
- Difference [2, 23]: 0.00

SMILES: CO/N=C(\C(=O)N[C@@H]1C(=O)N2C(C(=O)OC(C)OC(C)=O)=C(COC(N)=O)CS[C@H]12)c1ccco1 (stereo partly shown) [Cefuroxime axetil]
- Difference [1, 18]: −0.18
- Cholesterol-free [1, 19]: 0.8605
- Complete [1, 20]: 0.6767
- Cholesterol-free media + simvastatin (0.04 μM) [2, 10]: 1.05
- Complete Media [2, 11]: 1.073
- Difference [2, 12]: 0.02

SMILES: NC(N)=Nc1nc(CSCCC(N)=NS(N)(=O)=O)cs1 [Famotidine]
- Difference [1, 18]: −0.07
- Cholesterol-free [1, 19]: 1.016
- Complete [1, 20]: 0.9424
- Cholesterol-free media + simvastatin (0.04 μM) [2, 25]: 1.666
- Complete Media [2, 26]: 1.298
- Difference [2, 6]: −0.37

SMILES: COc1cc(C(=O)NCc2ccc(OCCN(C)C)cc2)cc(OC)c1OC [Trimethobenzamide hydrochloride]
- Cholesterol-free [1, 13]: 0.8254
- Complete [1, 14]: 0.9013
- Difference [1, 15]: 0.08
- Cholesterol-free media + simvastatin (0.04 μM) [2, 25]: 1.241
- Complete Media [2, 26]: 0.874
- Difference [2, 6]: −0.37

SMILES: CN1C(=O)/C(=C2/C(=O)Nc3ccccc32)c2ccccc21 [Meisoindigo]
- Cholesterol-free [1, 13]: 0.8169
- Complete [1, 14]: 1.238
- Difference [1, 15]: 0.42
- Cholesterol-free media + simvastatin (0.04 μM) [2, 16]: 0.9145
- Complete Media [2, 17]: 1.461
- Difference [2, 12]: 0.55

SMILES: COc1cc2c(cc1OC)CC(=O)N(CCCN(C)C[C@H]1Cc3cc(OC)c(OC)cc31)CC2 [Ivabradine (hydrochloride)]
- Difference [1, 4]: −0.47
- Cholesterol-free media + simvastatin (0.04 μM) [2, 16]: 1.338
- Complete Media [2, 17]: 1.217
- Difference [2, 6]: −0.12

SMILES: Cc1ncc(CO)c(CO)c1O.O=C1CC[C@@H](C(=O)O)N1 [Metadoxine]
- Difference [1, 27]: −0.12
- Cholesterol-free [1, 19]: 1.129
- Complete [1, 20]: 1.01
- Cholesterol-free media + simvastatin (0.04 μM) [2, 16]: 1.163
- Complete Media [2, 17]: 1.057
- Difference [2, 28]: −0.11

SMILES: OC[C@H]1O[C@@H](O[C@@H]2[C@@H](CO)OC(O)(CO)[C@H]2O)[C@H](O)[C@@H](O)[C@H]1O (mixture of isomers) [Lactulose]
- Difference [1, 18]: −0.16
- Cholesterol-free [1, 19]: 1.109
- Complete [1, 20]: 0.9456
- Cholesterol-free media + simvastatin (0.04 μM) [2, 10]: 0.7227
- Complete Media [2, 11]: 0.8015
- Difference [2, 12]: 0.08

SMILES: O=C(O)C1=C(CSc2nnnn2CS(=O)(=O)O)CS[C@@H]2[C@H](NC(=O)[C@H](O)c3ccccc3)C(=O)N12 [Cefonicid (sodium)]
- Difference [1, 24]: 0.00
- Cholesterol-free [1, 13]: 0.833
- Complete [1, 14]: 0.8286
- Cholesterol-free media + simvastatin (0.04 μM) [2, 16]: 1.25
- Complete Media [2, 17]: 1.107
- Difference [2, 6]: −0.14

SMILES: O=C1OC(OC(=O)c2cccnc2Nc2cccc(C(F)(F)F)c2)c2ccccc21 (stereo not shown) [Talniflumate]
- Cholesterol-free [1, 13]: 0.679
- Complete [1, 14]: 1.267
- Difference [1, 15]: 0.59
- Cholesterol-free media + simvastatin (0.04 μM) [2, 5]: 1.554
- Complete Media ([2]; drug in complete media): 1.302
- Difference [2, 6]: −0.25

SMILES: CN1[C@@H](CC(=O)c2ccccc2)CCC[C@H]1C[C@H](O)c1ccccc1 [Lobeline (hydrochloride)]
- Cholesterol-free [1, 13]: 0.6538
- Complete [1, 14]: 1.202
- Difference [1, 15]: 0.55
- Cholesterol-free media + simvastatin (0.04 μM) [2, 25]: 1.408
- Complete Media [2, 26]: 1.116
- Difference [2, 6]: −0.29

SMILES: Nc1nc(/C(=C/CC(=O)O)C(=O)N[C@@H]2C(=O)N3C(C(=O)O)=CCS[C@H]23)cs1 [Ceftibuten (dihydrate)]
- Cholesterol-free [1, 13]: 0.6461
- Complete [1, 14]: 1.242
- Difference [1, 15]: 0.60
- Cholesterol-free media + simvastatin (0.04 μM) [2, 16]: 1.353
- Complete Media [2, 17]: 1.195
- Difference [2, 6]: −0.16

SMILES: C[C@]1(Cn2ccnn2)[C@H](C(=O)O)N2C(=O)C[C@H]2S1(=O)=O [Tazobactam]
- Difference [1, 18]: −0.10
- Cholesterol-free [1, 19]: 1.004
- Complete [1, 20]: 0.9006
- Cholesterol-free media + simvastatin (0.04 μM) [2, 16]: 1.141
- Complete Media [2, 17]: 1.299
- Difference [2, 12]: 0.16

SMILES: CCCNC(C)C(=O)Nc1ccccc1C (stereo not shown) [Prilocaine]
- Difference [1, 7]: −0.49
- Cholesterol-free [1, 8]: 1.366
- Complete [1, 9]: 0.8796
- Cholesterol-free media + simvastatin (0.04 μM) [2, 5]: 1.231
- Complete Media ([2]; drug in complete media): 0.9727
- Difference [2, 6]: −0.26

SMILES: CN1CCN(C2=Nc3ccccc3Oc3ccc(Cl)cc32)CC1 [Loxapine]
- Difference [1, 24]: −0.26
- Cholesterol-free [1, 3]: 1.313
- Complete ([1]; NCI-H292 cells, complete media): 1.056
- Cholesterol-free media + simvastatin (0.04 μM) [2, 10]: 0.8194
- Complete Media [2, 11]: 0.9125
- Difference [2, 12]: 0.09

SMILES: Cc1cc(N2CCN([C@@H]3CN[C@H](C(=O)N4CCSC4)C3)CC2)n(-c2ccccc2)n1 [Teneligliptin (hydrobromide)]
- Difference [1, 27]: −0.56
- Cholesterol-free [1, 8]: 1.45
- Complete [1, 9]: 0.8858
- Cholesterol-free media + simvastatin (0.04 μM) [2, 25]: 1.564
- Complete Media [2, 26]: 1.115
- Difference [2, 28]: −0.45
